# Reference: patent US11866450B2, “Modulators of Cystic Fibrosis Transmembrane Conductance regulator, pharmaceutical compositions, methods of treatment, and process for making the modulators” (priority 2018, dated 2024)
# Where two headings read alike, the source gives them in different places.
# What was measured:
# [1] = snar bond
# [2] = molecular target: CFTR-mediated chloride transport (Homo sapiens, UniProt P13569); assay type: cell-based; conditions: enteroid cells incubated with test compound 18-24 hours, acute 10 μM forskolin and 300 nM Compound III; for Max. Activity: % of chloride transport with 3 μM Compound A, 3 μM Compound II and 300 nM acute Compound III triple combination control
# In short: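 Membrane-potential fluorescence AUC over 15 min quantified CFTR chloride transport after acute forskolin (10 μM), IBMX (100 μM) and Compound III (300 nM) in chloride-free buffer. Human enteroid cells were pretreated with compound for 18–24 h; % Activity is relative to 3 μM Compound A + 3 μM Compound II + 300 nM Compound III.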
# [3] = from 2-chloro-6-[3-(4,4-dimethylpentoxy)-2-oxo-pyrrolidin-1-yl]-N-[[6-[3-[(3S)-5,5-dimethylpyrrolidin-3-yl]propylamino]-2-pyridyl]sulfonyl]pyridine-3-carboxamide (dihydrochloride salt), 15-membered ring, K2CO3, NMP, 24.7 mM, 155.0 °C
# [4] = from CC1(C)CC(CCCCCNc2cccc(S(=O)(=O)NC(=O)c3ccc(-n4ccc(OCCC5(C(F)(F)F)CC5)n4)nc3Cl)n2)CN1, 17-membered ring, K2CO3/CsF/3A MS, DMSO, 35.8 mM, 165.0 °C, 16.0 h
# Chain of CFTR-mediated chloride transport (P13569 whole entry, looked up): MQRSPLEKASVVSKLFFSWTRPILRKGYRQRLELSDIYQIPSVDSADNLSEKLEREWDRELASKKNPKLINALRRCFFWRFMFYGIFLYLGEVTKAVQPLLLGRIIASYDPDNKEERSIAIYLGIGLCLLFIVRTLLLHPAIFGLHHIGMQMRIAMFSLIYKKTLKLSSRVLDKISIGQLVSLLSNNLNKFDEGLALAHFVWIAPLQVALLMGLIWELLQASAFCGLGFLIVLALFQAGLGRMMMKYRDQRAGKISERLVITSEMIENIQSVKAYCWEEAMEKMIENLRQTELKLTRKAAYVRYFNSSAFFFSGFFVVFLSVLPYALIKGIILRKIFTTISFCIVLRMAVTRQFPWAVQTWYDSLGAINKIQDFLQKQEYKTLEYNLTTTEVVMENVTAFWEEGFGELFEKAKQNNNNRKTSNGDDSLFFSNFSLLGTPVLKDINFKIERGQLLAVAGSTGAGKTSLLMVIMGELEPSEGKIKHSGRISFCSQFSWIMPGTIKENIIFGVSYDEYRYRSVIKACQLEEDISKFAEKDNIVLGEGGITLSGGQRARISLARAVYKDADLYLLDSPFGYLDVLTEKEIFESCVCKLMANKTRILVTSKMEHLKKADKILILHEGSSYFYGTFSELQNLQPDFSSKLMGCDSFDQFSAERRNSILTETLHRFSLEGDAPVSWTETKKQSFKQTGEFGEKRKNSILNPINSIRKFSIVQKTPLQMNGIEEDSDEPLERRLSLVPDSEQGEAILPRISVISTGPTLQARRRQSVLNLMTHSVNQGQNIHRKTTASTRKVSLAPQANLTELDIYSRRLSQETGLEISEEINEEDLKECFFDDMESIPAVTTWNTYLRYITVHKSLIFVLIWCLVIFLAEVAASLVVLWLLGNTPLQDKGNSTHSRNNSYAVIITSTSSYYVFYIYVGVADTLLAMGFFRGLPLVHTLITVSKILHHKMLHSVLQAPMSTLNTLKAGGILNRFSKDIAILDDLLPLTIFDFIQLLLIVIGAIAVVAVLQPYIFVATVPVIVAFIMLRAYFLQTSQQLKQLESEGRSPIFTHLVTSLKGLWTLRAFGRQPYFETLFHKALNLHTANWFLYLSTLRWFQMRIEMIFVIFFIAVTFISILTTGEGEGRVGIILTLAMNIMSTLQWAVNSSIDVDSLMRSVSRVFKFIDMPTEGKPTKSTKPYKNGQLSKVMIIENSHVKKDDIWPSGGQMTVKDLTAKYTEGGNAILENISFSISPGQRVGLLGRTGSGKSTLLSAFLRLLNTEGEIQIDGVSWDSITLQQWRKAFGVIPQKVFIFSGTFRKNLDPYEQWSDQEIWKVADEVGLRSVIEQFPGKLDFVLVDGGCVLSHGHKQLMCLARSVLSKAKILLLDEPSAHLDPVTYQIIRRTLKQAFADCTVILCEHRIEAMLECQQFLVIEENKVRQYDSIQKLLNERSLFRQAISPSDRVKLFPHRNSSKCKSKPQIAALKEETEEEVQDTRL
compound,measurement,setting,value
CC1(C)CC2CC(F)CNc3cccc(n3)S(=O)(=O)NC(=O)c3ccc(-n4ccc(OCCC5C6(CC6)C56CC6)n4)nc3N1C2 (stereo not shown),"ring closure, isolated yield","[1]; from 2-chloro-N-[[6-[[3-(5,5-dimethylpyrrolidin-3-yl)-2-fluoro-propyl]amino]-2-pyridyl]sulfonyl]-6-[3-(2-dispiro[2.0.2.1]heptan-7-ylethoxy)pyrazol-1-yl]pyridine-3-carboxamide (dihydrochloride salt), 15-membered ring, K2CO3, NMP, 32.3 mM, 150.0 °C",76%
CC1(C)CC2CCCCNc3ccc(cn3)S(=O)(=O)NC(=O)c3ccc(-n4ccc(OCC5C6(CC6)C56CC6)n4)nc3N1C2 (stereo not shown),"ring closure, isolated yield","[1]; from 2-chloro-N-[[6-[4-(5,5-dimethylpyrrolidin-3-yl)butylamino]-3-pyridyl]sulfonyl]-6-[3-(dispiro[2.0.2.1]heptan-7-ylmethoxy)pyrazol-1-yl]pyridine-3-carboxamide (dihydrochloride salt), 17-membered ring, K2CO3/CsF, NMP, 115.5 mM",22%
CC1(C)CC2CCCn3ccc(n3)S(=O)(=O)NC(=O)c3ccc(-n4ccc(OCCC5C(C)(C)C5(C)C)n4)nc3N1C2 (stereo not shown),"ring closure, isolated yield","[1]; from CC(C)(C)OC(=O)N1CC(CCCn2ccc(S(=O)(=O)NC(=O)c3ccc(-n4ccc(OCCC5C(C)(C)C5(C)C)n4)nc3Cl)n2)CC1(C)C, 14-membered ring, K2CO3/3A MS, NMP, 49.2 mM, 160.0 °C, 2 steps",20%
CC1(C)C[C@@H]2CCCNc3cc(OCc4ccccc4)cc(n3)S(=O)(=O)NC(=O)c3ccc(-n4ccc(OCCC5C6(CC6)C56CC6)n4)nc3N1C2,"ring closure, isolated yield","[1]; from CC1(C)C[C@H](CCCNc2cc(OCc3ccccc3)cc(S(=O)(=O)NC(=O)c3ccc(-n4ccc(OCCC5C6(CC6)C56CC6)n4)nc3Cl)n2)CN1, 15-membered ring, K2CO3/CsF, DMSO, 15.3 mM, 160.0 °C, 15.0 h",61%
CC1(C)C[C@@H]2CCCNc3cc(OCc4ccccc4)cc(n3)S(=O)(=O)NC(=O)c3ccc(-n4ccc(OCCCC5(C(F)(F)F)CC5)n4)nc3N1C2,"ring closure, isolated yield","[1]; from CC1(C)C[C@H](CCCNc2cc(OCc3ccccc3)cc(S(=O)(=O)NC(=O)c3ccc(-n4ccc(OCCCC5(C(F)(F)F)CC5)n4)nc3Cl)n2)CN1, 15-membered ring, K2CO3/CsF, DMSO, 14.1 mM, 160.0 °C, 15.0 h",56%
CC1(C)C[C@@H]2CCCNc3ccc(OCc4ccccc4)c(n3)S(=O)(=O)NC(=O)c3ccc(-n4ccc(OCCC5C6(CC6)C56CC6)n4)nc3N1C2,"ring closure, isolated yield","[1]; from CC1(C)C[C@H](CCCNc2ccc(OCc3ccccc3)c(S(=O)(=O)NC(=O)c3ccc(-n4ccc(OCCC5C6(CC6)C56CC6)n4)nc3Cl)n2)CN1, 15-membered ring, K2CO3, NMP, 57.2 mM, 150.0 °C, 20.0 h",37%
CC1(C)C[C@@H]2CCCNc3ccc(OCc4ccccc4)c(n3)S(=O)(=O)NC(=O)c3ccc(-n4ccc(OCCCC5(C(F)(F)F)CC5)n4)nc3N1C2,"ring closure, isolated yield","[1]; from N-[[3-benzyloxy-6-[3-[(3S)-5,5-dimethylpyrrolidin-3-yl]propylamino]-2-pyridyl]sulfonyl]-2-chloro-6-[3-[3-[1-(trifluoromethyl)cyclopropyl]propoxy]pyrazol-1-yl]pyridine-3-carboxamide (ditrifluoroacetate salt), 15-membered ring, K2CO3, NMP, 42.6 mM, 150.0 °C",39%
CC1(C)C[C@@H]2CCCNc3cccc(n3)S(=O)(=O)NC(=O)c3ccc(-n4ccc(OCC(O[Si](C)(C)C(C)(C)C)C5C6(CC6)C56CC6)n4)nc3N1C2 (stereo partly shown),"ring closure, isolated yield","[1]; from CC1(C)C[C@H](CCCNc2cccc(S(=O)(=O)NC(=O)c3ccc(-n4ccc(OCC(O[Si](C)(C)C(C)(C)C)C5C6(CC6)C56CC6)n4)nc3Cl)n2)CN1, 15-membered ring, K2CO3/MS, DMSO, 9.9 mM, 140.0 °C, 12.0 h",55%
CC1(C)C[C@@H]2CCCNc3nc(ccc3OCc3ccccc3)S(=O)(=O)NC(=O)c3ccc(-n4ccc(OCCC5C6(CC6)C56CC6)n4)nc3N1C2,"ring closure, isolated yield","[1]; from CC1(C)C[C@H](CCCNc2nc(S(=O)(=O)NC(=O)c3ccc(-n4ccc(OCCC5C6(CC6)C56CC6)n4)nc3Cl)ccc2OCc2ccccc2)CN1, 15-membered ring, K2CO3/CsF, DMSO, 17.2 mM, 160.0 °C, 15.0 h",83%
CC1(C)C[C@@H]2CCCNc3nc(ccc3OCc3ccccc3)S(=O)(=O)NC(=O)c3ccc(-n4ccc(OCCCC5(C(F)(F)F)CC5)n4)nc3N1C2,"ring closure, isolated yield","[1]; from CC1(C)CC(CCCNc2nc(S(=O)(=O)NC(=O)c3ccc(-n4ccc(OCCCC5(C(F)(F)F)CC5)n4)nc3Cl)ccc2OCc2ccccc2)CN1, 15-membered ring, K2CO3/CsF, DMSO, 17.7 mM, 160.0 °C, 15.0 h",82%
CC1CCC2CN(c3nc(Cl)ccc3C(=O)NS(=O)(=O)c3cccc(n3)N1)C(C)(C)C2 (stereo not shown),"ring closure, isolated yield","[1]; from CC(CCC1CN(C(=O)OC(C)(C)C)C(C)(C)C1)Nc1cccc(S(=O)(=O)NC(=O)c2ccc(Cl)nc2Cl)n1, 15-membered ring, K2CO3/CsF/3A MS, DMSO, 229.0 mM, 140.0 °C, 2 steps",31%
[2H]C([2H])(COc1ccn(-c2ccc3c(n2)N2C[C@@H](CCCNc4nc(ccc4OCc4ccccc4)S(=O)(=O)NC3=O)CC2(C)C)n1)C1C2(CC2)C12CC2,"ring closure, isolated yield","[1]; from [2H]C([2H])(COc1ccn(-c2ccc(C(=O)NS(=O)(=O)c3ccc(OCc4ccccc4)c(NCCC[C@@H]4CN(C(=O)OC(C)(C)C)C(C)(C)C4)n3)c(Cl)n2)n1)C1C2(CC2)C12CC2, 15-membered ring, K2CO3/CsF/4A MS, DMSO, 51.0 mM, 150.0 °C, 2 steps",68%
[2H]C([2H])(Oc1ccn(-c2ccc3c(n2)N2C[C@@H](CCCNc4cccc(n4)S(=O)(=O)NC3=O)CC2(C)C)n1)C([2H])([2H])C1C2(CC2)C12CC2,"ring closure, isolated yield","[1]; from [2H]C([2H])(Oc1ccn(-c2ccc(C(=O)NS(=O)(=O)c3cccc(NCCC[C@@H]4CN(C(=O)OC(C)(C)C)C(C)(C)C4)n3)c(Cl)n2)n1)C([2H])([2H])C1C2(CC2)C12CC2, 15-membered ring, K2CO3/3A MS, NMP, 22.2 mM, 155.0 °C, 2 steps",60%
"12,12,19-trimethyl-8-(3-{2-[1-(trifluoromethyl)cyclopropyl]ethoxy}-1H-pyrazol-1-yl)-2λ^6-thia-3,9,11,19,21-pentaazatetracyclo[18.2.2.111,14.05,10]pentacosa-1(23),5,7,9,20(24),21-hexaene-2,2,4-trione (dihydrochloride salt)","ring closure, isolated yield","[1]; 17-membered ring, K2CO3/CsF, DMSO, 42.1 mM, 150.0 °C",39%
"CN1CCCC2CCC(C)(C)N2c2nc(-n3ccc(OCCC4(C(F)(F)F)CC4)n3)ccc2C(=O)NS(=O)(=O)c2cccc1n2 (racemic) [Compound 9, 12,12,19-trimethyl-8-(3-{2-[1-(trifluoromethyl)cyclopropyl]ethoxy}-1H-pyrazol-1-yl)-2λ^6-thia-3,9,11,19,24-pentaazatetracyclo[18.3.1.05,10.011,15]tetracosa-1(23),5,7,9,20(24),21-hexaene-2,2,4-trione]","ring closure, isolated yield","[1]; from CN(CCCC1CCC(C)(C)N1)c1cccc(S(=O)(=O)NC(=O)c2ccc(-n3ccc(OCCC4(C(F)(F)F)CC4)n3)nc2Cl)n1, 14-membered ring, K2CO3/CsF/3A MS, DMSO, 72.3 mM, 150.0 °C, 25.0 h",78%
same,EC50,[2],< 1000 nM
same,Max. Activity,[2],++ (++ is 30-60%)
"CC1(C)CC2CCCNc3cccc(n3)S(=O)(=O)NC(=O)c3ccc(-n4ccc(OCCC5(C(F)(F)F)CC5)n4)nc3N1C2 (racemic) [Compound 12, 12,12-dimethyl-8-(3-{2-[1-(trifluoromethyl)cyclopropyl]ethoxy}-1H-pyrazol-1-yl)-2λ^6-thia-3,9,11,18,23-pentaazatetracyclo[17.3.1.111,14.05,10]tetracosa-1(23),5(10),6,8,19,21-hexaene-2,2,4-trione]","ring closure, isolated yield","[1]; from 2-chloro-N-[[6-[3-(5,5-dimethylpyrrolidin-3-yl)propylamino]-2-pyridyl]sulfonyl]-6-[3-[2-[1-(trifluoromethyl)cyclopropyl]ethoxy]pyrazol-1-yl]pyridine-3-carboxamide (dihydrochloride salt), 15-membered ring, K2CO3/CsF, NMP, 144.7 mM, 150.0 °C",67%
same,EC50,[2],< 1000 nM
same,Max. Activity,[2],+++ (+++ is >60%)
"CC1(C)CC2CCCNc3cccc(n3)S(=O)(=O)NC(=O)c3ccc(-n4ccc(OCC5(C(F)(F)F)CC5)n4)nc3N1C2 (racemic) [Compound 15, 12,12-dimethyl-8-(3-{[1-(trifluoromethyl)cyclopropyl]methoxy}-1H-pyrazol-1-yl)-2λ^6-thia-3,9,11,18,23-pentaazatetracyclo[17.3.1.111,14.05,10]tetracosa-1(23),5(10),6,8,19,21-hexaene-2,2,4-trione]","ring closure, isolated yield","[1]; from CC1(C)CC(CCCNc2cccc(S(=O)(=O)NC(=O)c3ccc(-n4ccc(OCC5(C(F)(F)F)CC5)n4)nc3Cl)n2)CN1, 15-membered ring, K2CO3/CsF/3A MS, DMSO, 43.8 mM, 150.0 °C, 16.0 h, 2 steps",54%
same,EC50,[2],< 1000 nM
same,Max. Activity,[2],+++ (+++ is >60%)
"CC(C)(C)CCCOC1CCN(c2ccc3c(n2)N2C[C@@H](CCCNc4cccc(n4)S(=O)(=O)NC3=O)CC2(C)C)C1=O (single isomer, unassigned; diastereomer 1)","ring closure, isolated yield",[1]; [3],20%
"CC(C)(C)CCCOC1CCN(c2ccc3c(n2)N2C[C@@H](CCCNc4cccc(n4)S(=O)(=O)NC3=O)CC2(C)C)C1=O (single isomer, unassigned; diastereomer 2)","ring closure, isolated yield",[1]; [3],19%
"CC1(C)CC2CCCCCNc3cccc(n3)S(=O)(=O)NC(=O)c3ccc(-n4ccc(OCCC5(C(F)(F)F)CC5)n4)nc3N1C2 (single isomer, unassigned; enantiomer 1)","ring closure, isolated yield",[1]; [4],47%
"CC1(C)CC2CCCCCNc3cccc(n3)S(=O)(=O)NC(=O)c3ccc(-n4ccc(OCCC5(C(F)(F)F)CC5)n4)nc3N1C2 (single isomer, unassigned; enantiomer 2)","ring closure, isolated yield",[1]; [4],50%
"racemic 8-[3-(2-{dispiro[2.0.2.1]heptan-7-yl}ethoxy)-1H-pyrazol-1-yl]-16,16-difluoro-12,12-dimethyl-2λ^6-thia-3,9,11,18,23-pentaazatetracyclo[17.3.1.111,14.05,10]tetracosa-1(22),5,7,9,19(23),20-hexaene-2,2,4-trione","ring closure, isolated yield","[1]; 15-membered ring, K2CO3, NMP, 31.1 mM, 150.0 °C",83%
